These results are taken from US20240009271A1, “METHODS OF TREATING METASTATIC CANCERS USING AXL DECOY RECEPTORS” (Aravive Inc, priority 2017, published 2024).

This experiment deals with MDA-MB-231 Axl+ TNBC cells. In words: MDA-MB-231 Matrigel cell invasion assay. Type of experiment: cell-based. Conditions: Homo sapiens. Here is the method:
Inhibition of GAS6-induced invasion/migration was evaluated in models for triple-negative breast (MDA-MB-231) and ovarian (OVCAR8) cancers using the Corning® Matrigel® or collagen invasion assays, respectively, and using an AXL decoy receptor which comprises a soluble AXL variant polypeptide comprising amino acid changes relative to wild-type AXL sequence (SEQ ID NO:1) at the following positions: (a) glycine 32; (b) aspartic acid 87; (c) alanine 72; (d) valine 92; and (e) glycine 127, lacking the AXL transmembrane domain, lacking a functional FN domain, and comprising an Fc domain linked to the soluble AXL variant polypeptide by a peptide linker (hereinafter referred to as AVB-S6-500).
AVB-S6-500 and MDA-MB-231 Axl^+ TNBC cells in serum free media were seeded in the top of a Matrigel-coated Boyden Chamber. Media with serum as a chemo-attractant was added to the chamber bottom. After 24 hours incubation, the number of cells that migrated across the Matrigel were counted and expressed as the fraction of invasive cells relative to a PBS control (FIG. 1A).
Representative images from the AVB-S6-500 treated MDA-MB-231 cells are depicted in FIG. 2.

For orientation: IC50 means the concentration that gives 50% inhibition. High values mean weaker potency, low ones greater potency. In turn, `COc1cc(Nc2c(C#N)cnc3cc(OCCCN4CCN(C)CC4)c(OC)cc23)c(Cl)cc1Cl` [Bosutinib, bosutinib] returned an IC50 of 24 nM. This counts as double-digit nanomolar.
